According to patent US20140037798A1, “LIQUID NUTRITIONAL PRODUCTS COMPRISING METAL AMINO ACID CHELATES” (ABBOTT LABORATORIES, priority 2011, published 2014):

Key:
[1] = cocoa powder 0.80% (w/w), pH 6.8 HEPES, cocoa powder:iron 40:1, 99° C. thirty minutes, 0.45 μm filtrate
Procedure: The visible absorbance of liquids including a mixture of cocoa powder and an iron-containing component is measured to determine the ability of various ferric salts, including ferric amino acid chelates, to decrease reactivity between the iron and the cocoa powder.
Various samples are prepared as described herein using various iron-containing components. All mixtures contain cocoa powder at 0.80% (w/w) in pH 6.8 buffer (0.10M HEPES). The control liquid is prepared without any iron-containing component. In the remaining samples, the iron components are added so that the weight ratio of cocoa powder:iron is 40:1 (w/w).

[2] = Methionine sulfoxide concentration in nutritional emulsion, marker of reactive oxygen species generation; format: physicochemical; conditions: copper ingredient 35 μM, retort sterilized
[3] = Vitamin B12 recovery in retort sterilized chocolate flavored nutritional emulsion (validated HPLC); conditions: copper ingredient 35 μM
Procedure: Once prepared, the emulsions are analyzed for vitamin B12 recovery using a fully validated HPLC method to determine the amount of vitamin B12 remaining (i.e., not lost to oxidative destruction) in the nutritional emulsion.

Compound | Absorbance, Filtrate v. Blank, 535 nm [1] [mAU] | Absorbance, Filtrate v. Blank, 600 nm [1] [mAU] | Absorbance, Filtrate v. Blank, 700 nm [1] [mAU] | Methionine sulfoxide, as mole % of total methionine [2] [%] | Vitamin B12 [3] [µg/kg]
Ferrous sulfate [reference compound] | 1240 | 1150 | 688 | – | –
Ferrous gluconate | 1230 | 1100 | 607 | – | –
O.O.O.O.O.O=S(=O)([O-])[O-].[Cu+2] [Control (CuSO4), copper sulfate pentahydrate, reference compound] | – | – | – | 18.8 | 38.5
O=P([O-])([O-])[O-].[Fe+3] [Ferric orthophosphate, reference compound] | 579 | 237 | 65 | – | –
NCC(=O)[O-].NCC(=O)[O-].[Cu+2] [Copper bis-glycinate chelate, copper bis-glycinate chelate] | – | – | – | 18.1 | 41.3
NCC(=O)[O-].NCC(=O)[O-].[Fe+2] [Ferrous bis-glycinate] | 1200 | 1040 | 567 | – | –
Ferric bis-glycinate | 610 | 319 | 101 | – | –
copper lysine chelate | – | – | – | 17.4 | 47.0
copper gluconate | – | – | – | 17.9 | 46.4
